In article PMC9699427 (Viruses, 2022):
Read-outs that look alike come from different tables or passages of the source.

How the values were obtained:
[1] = test system: C8166 cells infected with HIV-1IIIB or TZM-bl cells infected with HIV-1YU-2; experiment: Combination antiviral activity assay (CompuSyn CI and DRI); assay type: cell-based
CYP2D6 = CYP2D6 (Homo sapiens, UniProt P10635); experiment: Cytochrome P450 inhibition, human liver microsomes, dextromethorphan
[2] = test system: HIV-1IIIB chronically infected H9 cells; experiment: HIV-1 replication in chronically infected H9/HIV-1IIIB cells, p24; assay type: cell-based
HIV-1IIIB [3] = experiment: Anti-HIV-1 activity, syncytia (CPE) count in C8166 cells; assay type: cell-based; conditions: Human immunodeficiency virus 1
CYP1A2 = biological target: T1, CYP1A2 (Homo sapiens, UniProt P05177); experiment: Cytochrome P450 inhibition, human liver microsomes, phenacetin
T1 sequence (P05177 1-516): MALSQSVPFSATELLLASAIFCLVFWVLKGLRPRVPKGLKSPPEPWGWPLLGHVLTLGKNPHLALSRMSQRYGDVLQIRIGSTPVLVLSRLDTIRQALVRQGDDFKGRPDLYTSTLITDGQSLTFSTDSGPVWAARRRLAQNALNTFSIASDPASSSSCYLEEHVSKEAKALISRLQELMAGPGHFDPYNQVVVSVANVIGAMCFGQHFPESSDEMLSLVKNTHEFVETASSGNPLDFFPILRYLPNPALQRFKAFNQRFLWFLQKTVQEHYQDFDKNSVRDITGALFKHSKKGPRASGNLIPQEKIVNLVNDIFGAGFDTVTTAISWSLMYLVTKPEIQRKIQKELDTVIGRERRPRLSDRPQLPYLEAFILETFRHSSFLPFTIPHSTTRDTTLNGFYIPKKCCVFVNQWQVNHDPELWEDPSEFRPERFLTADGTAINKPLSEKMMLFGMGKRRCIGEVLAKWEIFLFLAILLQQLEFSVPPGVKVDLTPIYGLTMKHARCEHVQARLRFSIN

CYP3A4M = CYP3A4M (Homo sapiens, UniProt P08684); experiment: Cytochrome P450 inhibition, human liver microsomes, midazolam
CYP3A4M, sequence (P08684 whole entry): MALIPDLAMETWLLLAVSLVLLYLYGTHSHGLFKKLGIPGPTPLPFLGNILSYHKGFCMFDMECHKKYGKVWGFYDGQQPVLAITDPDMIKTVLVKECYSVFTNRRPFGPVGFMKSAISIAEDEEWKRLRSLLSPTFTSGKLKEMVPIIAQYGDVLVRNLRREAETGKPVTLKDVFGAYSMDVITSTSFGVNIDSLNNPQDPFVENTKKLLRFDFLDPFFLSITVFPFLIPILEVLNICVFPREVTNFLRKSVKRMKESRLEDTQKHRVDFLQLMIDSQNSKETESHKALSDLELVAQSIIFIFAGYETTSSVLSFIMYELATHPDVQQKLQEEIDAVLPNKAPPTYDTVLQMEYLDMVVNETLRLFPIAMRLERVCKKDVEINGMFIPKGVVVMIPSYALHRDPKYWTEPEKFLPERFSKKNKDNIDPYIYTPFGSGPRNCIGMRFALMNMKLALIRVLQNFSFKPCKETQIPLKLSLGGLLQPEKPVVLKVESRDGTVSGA

[4] = Cytotoxicity, MTT assay, H9/HIV-1IIIB cells; assay type: cell-based; conditions: human, three days, read-out: CC50 (Mean ± SD)
HIV-1IIIB [5] = experiment: Anti-HIV-1 activity, MTT protection of MT-4 cells; assay type: cell-based; conditions: Human immunodeficiency virus 1, MT4, MT-4, MTT
HIV-1Yu-2(G140S/Q148H) = experiment: microbe, parasite or virus in culture; assay type: cell-based; conditions: Human immunodeficiency virus 1, TZM-bl
[6] = Cytotoxicity, MTT assay, MT-4 cells; assay type: cell-based; conditions: human, three days, read-out: CC50 (Mean ± SD)
HIV-1IIIB [7] = experiment: Anti-HIV-1 activity in the presence of human serum, p24 in C8166; conditions: Human immunodeficiency virus 1, C8166, HIV-1IIIB
CYP2C19 = CYP2C19 (Homo sapiens, UniProt P33261); experiment: Cytochrome P450 inhibition, human liver microsomes, S-mephenytoin
CYP2C19, sequence (P33261 whole entry): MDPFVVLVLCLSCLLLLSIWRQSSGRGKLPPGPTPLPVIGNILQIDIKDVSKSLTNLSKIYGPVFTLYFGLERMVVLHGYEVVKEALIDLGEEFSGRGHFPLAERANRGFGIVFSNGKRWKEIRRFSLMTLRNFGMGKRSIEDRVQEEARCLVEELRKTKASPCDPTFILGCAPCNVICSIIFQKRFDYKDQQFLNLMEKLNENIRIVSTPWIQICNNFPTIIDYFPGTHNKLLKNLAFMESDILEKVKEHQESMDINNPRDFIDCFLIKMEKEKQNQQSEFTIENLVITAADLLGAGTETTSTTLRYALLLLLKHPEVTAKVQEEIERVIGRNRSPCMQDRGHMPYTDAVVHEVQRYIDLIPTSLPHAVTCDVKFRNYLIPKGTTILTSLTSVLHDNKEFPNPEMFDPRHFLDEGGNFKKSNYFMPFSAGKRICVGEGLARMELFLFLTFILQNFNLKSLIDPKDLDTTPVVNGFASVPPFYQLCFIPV

[8] = Cytotoxicity, MTT assay, C8166 cells; assay type: cell-based; conditions: human, three days, read-out: CC50 (Mean ± SD)
[9] = Cytotoxicity, MTT assay, PBMCs; assay type: cell-based; conditions: human, PBMC, seven days, read-out: CC50 (Mean ± SD)
CYP2C9 = CYP2C9 (Homo sapiens, UniProt P11712); experiment: Cytochrome P450 inhibition, human liver microsomes, diclofenac
CYP2C9, sequence (P11712 whole entry): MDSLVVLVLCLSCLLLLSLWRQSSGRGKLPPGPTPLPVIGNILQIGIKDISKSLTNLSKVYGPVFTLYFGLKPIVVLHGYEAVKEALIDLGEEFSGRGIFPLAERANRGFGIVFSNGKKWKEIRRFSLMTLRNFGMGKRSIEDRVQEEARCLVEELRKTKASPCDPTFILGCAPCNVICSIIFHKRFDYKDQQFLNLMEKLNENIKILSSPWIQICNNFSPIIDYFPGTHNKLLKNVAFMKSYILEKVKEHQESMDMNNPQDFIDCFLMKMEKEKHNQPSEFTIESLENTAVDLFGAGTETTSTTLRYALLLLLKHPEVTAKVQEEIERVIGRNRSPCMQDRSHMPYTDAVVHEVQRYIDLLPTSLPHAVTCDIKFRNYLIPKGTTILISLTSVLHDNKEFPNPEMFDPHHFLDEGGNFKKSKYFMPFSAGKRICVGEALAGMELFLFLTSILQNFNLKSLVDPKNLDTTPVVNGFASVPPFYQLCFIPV

[10] = single drug in combination K-5a2+AZT
[11] = single drug in combination K-5a2+ETR
[12] = single drug in combination K-5a2+DTG
[13] = single drug in combination K-5a2+MVC
[14] = single drug in combination K-5a2+T-20
[15] = single drug in combination K-5a2+FTC
[16] = single drug in combination K-5a2+DC521022
[17] = single drug in combination K-5a2+3TC
[18] = single drug in combination K-5a2+DRV
[19] = single drug in combination K-5a2+TDF

CYP2D6, sequence (P10635 whole entry): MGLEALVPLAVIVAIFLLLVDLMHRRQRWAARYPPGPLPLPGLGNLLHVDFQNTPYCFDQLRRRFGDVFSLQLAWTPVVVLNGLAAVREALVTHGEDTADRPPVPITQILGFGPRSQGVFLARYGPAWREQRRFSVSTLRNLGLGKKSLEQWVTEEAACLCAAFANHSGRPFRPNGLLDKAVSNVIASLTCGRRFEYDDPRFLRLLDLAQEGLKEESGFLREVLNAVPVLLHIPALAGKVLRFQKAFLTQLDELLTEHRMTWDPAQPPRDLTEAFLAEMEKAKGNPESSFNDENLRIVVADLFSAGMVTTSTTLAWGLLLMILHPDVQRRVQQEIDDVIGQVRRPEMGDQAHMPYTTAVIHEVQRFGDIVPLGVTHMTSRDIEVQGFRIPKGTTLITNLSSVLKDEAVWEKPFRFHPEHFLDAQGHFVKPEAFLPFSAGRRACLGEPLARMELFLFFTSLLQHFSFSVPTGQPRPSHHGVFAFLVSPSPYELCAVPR

## Cc1cn([C@H]2C[C@H](N=[N+]=[N-])[C@@H](CO)O2)c(=O)[nH]c1=O [AZT, zidovudine, reference compound]
[1]; [10]
  DRI Value ED75: 4.88 ± 2.30
  DRI Value ED90: 5.60 ± 2.33
  DRI Value ED95: 6.52 ± 3.94

## Cc1cc(C#N)cc(C)c1Oc1nc(Nc2ccc(C#N)cc2)nc(N)c1Br [ETR, etravirine, reference compound]
CYP2D6
  IC50: 12 µM
[2]; Human immunodeficiency virus 1, HIV-1IIIB, H9/HIV-1IIIB chronically infected, p24
  EC50: > 50 µM
[2]; at a concentration of 50.00 µM
  Inhibition of HIV-1 replication in HIV-1IIIB chronically infected H9 cells: could not inhibit the replication
HIV-1IIIB [3]
  EC50: 0.00174 ± 0.00067 µM
CYP1A2
  IC50: 7.48 µM
CYP3A4M
  IC50: 41.3 µM
[4]
  CC50 at 3 days: 30.4 ± 1.59 µM
HIV-1IIIB [5]
  EC50: 0.00615 ± 0.00176 µM
[1]; [11]
  DRI Value ED75: 2.44 ± 0.52
  DRI Value ED90: 2.20 ± 0.58
  DRI Value ED95: 2.06 ± 0.61
HIV-1Yu-2(G140S/Q148H)
  EC50: < 0.00013 µM
[6]
  CC50 at 3 days: 27.4 ± 5.46 µM
HIV-1IIIB [7]; C8166, p24, 20% human serum
  EC50: 0.00656 ± 0.00489 µM
HIV-1IIIB [7]; C8166, p24, 40% human serum
  EC50: 0.00209 ± 0.00065 µM
CYP2C19
  IC50: 0.5 µM
[8]
  CC50 at 3 days: > 50 µM
[9]
  CC50 at 7 days: 34.5 ± 3.06 µM
CYP2C9
  IC50: 0.28 µM

## C[C@@H]1CCO[C@H]2Cn3cc(C(=O)NCc4ccc(F)cc4F)c(=O)c(O)c3C(=O)N12 [DTG, dolutegravir, reference compound]
[1]; [12]
  DRI Value ED75: 2.37 ± 0.28
  DRI Value ED90: 2.50 ± 0.41
  DRI Value ED95: 2.61 ± 0.68

## maraviroc [MVC, reference compound]
[1]; [13]
  DRI Value ED75: 4.58 ± 0.50
  DRI Value ED90: 5.10 ± 0.83
  DRI Value ED95: 5.49 ± 1.09

## enfuvirtide [T-20, reference compound]
[1]; [14]
  DRI Value ED75: 2.05 ± 0.42
  DRI Value ED90: 2.37 ± 0.18
  DRI Value ED95: 2.69 ± 0.66

## Nc1nc(=O)n([C@@H]2CS[C@H](CO)O2)cc1F [FTC, emtricitabine, reference compound]
[1]; [15]
  DRI Value ED75: 2.38 ± 0.10
  DRI Value ED90: 2.22 ± 0.23
  DRI Value ED95: 2.11 ± 0.32

## thioraviroc [DC521022, reference compound]
[1]; [16]
  DRI Value ED75: 5.41 ± 4.21
  DRI Value ED90: 7.32 ± 6.96
  DRI Value ED95: 9.08 ± 9.61

## Nc1ccn([C@@H]2CS[C@H](CO)O2)c(=O)n1 [3TC, lamivudine, reference compound]
[1]; [17]
  DRI Value ED75: 2.83 ± 0.52
  DRI Value ED90: 3.28 ± 0.80
  DRI Value ED95: 3.64 ± 1.06

## CC(C)CN(C[C@@H](O)[C@H](Cc1ccccc1)NC(=O)O[C@H]1CO[C@H]2OCC[C@H]21)S(=O)(=O)c1ccc(N)cc1 [DRV, darunavir, reference compound]
[1]; [18]
  DRI Value ED75: 2.82 ± 0.21
  DRI Value ED90: 3.41 ± 0.86
  DRI Value ED95: 3.93 ± 1.44

## Cc1nnc(C(=O)NC(C)(C)c2nc(C(=O)NCc3ccc(F)cc3)c(O)c(=O)n2C)o1 [RAL, raltegravir, reference compound]
[1]
  DRI Value ED75: 3.08 ± 1.11
  DRI Value ED90: 3.50 ± 1.64
  DRI Value ED95: 3.83 ± 2.07

## C[C@H](Cn1cnc2c(N)ncnc21)OCP(=O)(O)O [TDF, tenofovir, reference compound]
[1]; [19]
  DRI Value ED75: 3.22 ± 0.71
  DRI Value ED90: 3.46 ± 0.35
  DRI Value ED95: 3.69 ± 0.66
